Measurements taken from patent US6576635B2, “Compositions comprising trimetrexate” (MedImmune Oncology, Inc., priority 1999, dated 2003).
Blank lines part the entries; values can stand above or below the compound they belong to.

How the values were obtained:
[1] = Relative thermal stability of reconstituted dosage forms; format: physicochemical; design: key to Appearance: S = satisfactory (pale green-yellow solution); U = unsatisfactory (discolored solution); details: 25 ° C.
Description: One bulk solution of each dosage form was prepared by combining its vials, held at 25 ° C. and 60% relative humidity in closed containers and tested over time for trimetrexate decomposition and observed for physical appearance. Both dosage forms were tested according to the method in Example 2, except the amount of ascorbic acid equivalent to that in the dosage form was added to the trimetrexate standards being used to evaluate the ascorbate formulation to give equivalent response factors.

[2] = Relative thermal stability of solid dosage forms; format: physicochemical; design: key to Appearance: S = satisfactory (pale green-yellow solid); details: 40° C.
Description: Both dosage forms were tested according to the method in Example 2, except the amount of ascorbic acid equivalent to that in the dosage form was added to the trimetrexate HPLC standards being used to evaluate the ascorbate formulation to give equivalent response factors.

[3] = Relative light stability of dosage forms; format: physicochemical
Excerpt: (§1) Dosage forms of trimetrexate glucuronate and trimetrexate ascorbate were dispersed in thin films on watch glasses and exposed to illumination in an air atmosphere over time. The overall illumination was approximately 0.28 million lux hours per day and the integrated near ultraviolet energy was approximately 210 watt hours per square meter per day. Therefore at day 9 the dosage forms had received approximately 2.5 million lux hours of illumination and approximately 1900 watt hours per square meter of integrated near ultraviolet energy. The dosage forms were tested over time for trimetrexate decomposition and observed for physical appearance. Both dosage forms were tested according to the method in Example 2, except the amount of ascorbic acid equivalent to that in the dosage form was added to the trimetrexate HPLC standards being used to evaluate the ascorbate formulation to give equivalent response factors.
(§2) In Table 9, the total quantity of trimetrexate free base is expressed as percent of the initial amount of trimetrexate, and the total amount of impurities is expressed as the sum of the weight percent of the aldehyde degradant and area percent of all other impurities. The oxidative degradation pathway of trimetrexate generates the aldehyde degradant. Its response factor has been determined to be 0.62 relative to that of trimetrexate. Therefore the weight percent of the aldehyde degradant is obtained by dividing the area percent value by the response factor of 0.62.

[4] = Relative light stability of dosage forms; format: physicochemical; design: key: S = satisfactory (pale green-yellow solid)
Excerpt: as §1, §2

[5] = Relative light stability of dosage forms; format: physicochemical; design: key: S = satisfactory (pale green-yellow solid); U = unsatisfactory (discolored solid)
Excerpt: as §1, §2

[6] = in 1:1 methanol/water; cited from earlier work
[7] = tested on: murine cell lines such as L1210, L5178Y, S-180, W-256; details: cited from earlier work
[8] = tested on: murine tumors such as B16 melanoma, colon 26 and 38, L1210 and P388 leukemia and CD8F mammary tumors; details: cited from earlier work
[9] = tested on: human tumor cells lines derived from breast, colon, lung, ovary, renal and melanoma cells; details: cited from earlier work
P450 enzyme system = details: cited from earlier work
[10] = exposed to oxygen at room temperature; cited from earlier work
[11] = cited from earlier work
[12] = day 0, reconstituted ~12.5 mg/ml, 60% RH
[13] = day 0, reconstituted ~12.5 mg/ml, 60% RH, HPLC area
[14] = day 0, reconstituted ~12.5 mg/ml, 60% relative humidity
[15] = day 0 of illumination, weight percent aldehyde + area percent other impurities
[16] = day 0, thin film, illumination ~0.28 million lux hours per day, air
[17] = day 9 of illumination (~2.5 million lux hours)

% Label Claim [1, 12]: 99.0%
% Total Imp. [1, 13]: 0.1%
Appearance [1, 14]: S
% Label Claim ([1]; day 1, reconstituted, 60% RH): 98.5%
% Total Imp. ([1]; day 1, reconstituted, 60% RH): 0.1%
Appearance ([1]; day 1, reconstituted, 60% RH): S
% Label Claim ([1]; day 2, reconstituted, 60% RH): 98.4%
% Total Imp. ([1]; day 2, reconstituted, 60% RH): 0.1%
Appearance ([1]; day 2, reconstituted, 60% RH): S
% Label Claim ([1]; day 3, reconstituted, 60% RH): 98.8%
% Total Imp. ([1]; day 3, reconstituted, 60% RH): 0.2%
Appearance ([1]; day 3, reconstituted, 60% RH): S
% Label Claim ([1]; day 4, reconstituted, 60% RH): 101.0%
% Total Imp. ([1]; day 4, reconstituted, 60% RH): 0.4%
Appearance ([1]; day 4, reconstituted, 60% RH): S
% Label Claim ([1]; day 5, reconstituted, 60% RH): 98.2%
% Total Imp. ([1]; day 5, reconstituted, 60% RH): 0.3%
Appearance ([1]; day 5, reconstituted, 60% RH): S
% Label Claim ([1]; day 6, reconstituted, 60% RH): 96.5%
% Total Imp. ([1]; day 6, reconstituted, 60% RH): 0.4%
Appearance ([1]; day 6, reconstituted, 60% RH): S
% Label Claim ([1]; day 7, reconstituted, 60% RH): 98.7%
% Total Imp. ([1]; day 7, reconstituted, 60% RH): 0.6%
Appearance ([1]; day 7, reconstituted, 60% RH): S
% Label Claim ([2]; 1 month, 75% RH): 100.0%
% Total Imp. ([2]; 1 month, 75% RH, HPLC area): <0.1%
Appearance ([2]; 1 month, 75% relative humidity): S
% Label Claim ([2]; 2 months, 75% RH): 99.6%
% Total Imp. ([2]; 2 months, 75% RH): <0.1%
Appearance ([2]; 2 months, 75% RH): S
% Label Claim ([2]; 3 months, 75% RH): 98.9%
% Total Imp. ([2]; 3 months, 75% RH): <0.1%
Appearance ([2]; 3 months, 75% RH): S
% Aldehyde Degredant (w/w) ([3]; day 0 of illumination): 0.1%
% TMX of Initial ([3]; day 0 of illumination): 100.0%
% Total Imp. [3, 15]: 0.1%
% Aldehyde Degredant (w/w) ([3]; day 2 of illumination): 0.1%
% TMX of Initial ([3]; day 2 of illumination): 98.3%
% Total Imp. ([3]; day 2 of illumination): 0.4%
% Aldehyde Degredant (w/w) ([3]; day 4 of illumination): 0.1%
% TMX of Initial ([3]; day 4 of illumination): 97.7%
% Total Imp. ([3]; day 4 of illumination): 0.6%
% Aldehyde Degredant (w/w) ([3]; day 6 of illumination): 0.1%
% TMX of Initial ([3]; day 6 of illumination): 97.1%
% Total Imp. ([3]; day 6 of illumination): 1.0%
% Aldehyde Degredant (w/w) ([3]; day 9 of illumination): 0.2%
% TMX of Initial ([3]; day 9 of illumination): 96.1%
% Total Imp. ([3]; day 9 of illumination): 1.4%
Appearance [4, 16]: S
Appearance ([4]; day 2 of illumination): S
Appearance ([4]; day 4 of illumination): S
Appearance ([4]; day 6 of illumination): S
Appearance [4, 17]: S
SMILES: COc1cc(NCc2ccc3nc(N)nc(N)c3c2C)cc(OC)c1OC.O=C1O[C@H]([C@@H](O)CO)C(O)=C1O [Trimetrexate Ascorbate]

% Label Claim [1, 12]: 95.9%
% Total Imp. [1, 13]: 0.2%
Appearance [1, 14]: S
% Label Claim ([1]; day 1, reconstituted, 60% RH): 98.6%
% Total Imp. ([1]; day 1, reconstituted, 60% RH): 0.2%
Appearance ([1]; day 1, reconstituted, 60% RH): S
% Label Claim ([1]; day 2, reconstituted, 60% RH): 96.8%
% Total Imp. ([1]; day 2, reconstituted, 60% RH): 0.4%
Appearance ([1]; day 2, reconstituted, 60% RH): S
% Label Claim ([1]; day 3, reconstituted, 60% RH): 97.1%
% Total Imp. ([1]; day 3, reconstituted, 60% RH): 0.5%
Appearance ([1]; day 3, reconstituted, 60% RH): U
% Label Claim ([1]; day 4, reconstituted, 60% RH): 96.1%
% Total Imp. ([1]; day 4, reconstituted, 60% RH): 0.8%
Appearance ([1]; day 4, reconstituted, 60% RH): U
% Label Claim ([1]; day 5, reconstituted, 60% RH): 96.5%
% Total Imp. ([1]; day 5, reconstituted, 60% RH): 1.1%
Appearance ([1]; day 5, reconstituted, 60% RH): U
% Label Claim ([1]; day 6, reconstituted, 60% RH): 95.0%
% Total Imp. ([1]; day 6, reconstituted, 60% RH): 1.5%
Appearance ([1]; day 6, reconstituted, 60% RH): U
% Label Claim ([1]; day 7, reconstituted, 60% RH): 92.1%
% Total Imp. ([1]; day 7, reconstituted, 60% RH): 1.9%
Appearance ([1]; day 7, reconstituted, 60% RH): U
% Label Claim ([2]; 1 month, 75% RH): 99.6%
% Total Imp. ([2]; 1 month, 75% RH, HPLC area): 0.1%
Appearance ([2]; 1 month, 75% relative humidity): S
% Label Claim ([2]; 2 months, 75% RH): 100.7%
% Total Imp. ([2]; 2 months, 75% RH): 0.2%
Appearance ([2]; 2 months, 75% RH): S
% Label Claim ([2]; 3 months, 75% RH): 98.0%
% Total Imp. ([2]; 3 months, 75% RH): 0.3%
Appearance ([2]; 3 months, 75% RH): S
% Aldehyde Degredant (w/w) ([3]; day 0 of illumination): 0.3%
% TMX of Initial ([3]; day 0 of illumination): 100.0%
% Total Imp. [3, 15]: 0.9%
% Aldehyde Degredant (w/w) ([3]; day 2 of illumination): 2.0%
% TMX of Initial ([3]; day 2 of illumination): 94.4%
% Total Imp. ([3]; day 2 of illumination): 3.1%
% Aldehyde Degredant (w/w) ([3]; day 4 of illumination): 3.8%
% TMX of Initial ([3]; day 4 of illumination): 92.4%
% Total Imp. ([3]; day 4 of illumination): 5.6%
% Aldehyde Degredant (w/w) ([3]; day 6 of illumination): 5.6%
% TMX of Initial ([3]; day 6 of illumination): 87.9%
% Total Imp. ([3]; day 6 of illumination): 8.1%
% Aldehyde Degredant (w/w) ([3]; day 9 of illumination): 8.2%
% TMX of Initial ([3]; day 9 of illumination): 83.6%
% Total Imp. ([3]; day 9 of illumination): 11.8%
Appearance [4, 16]: S
Appearance ([5]; day 2 of illumination): U
Appearance ([5]; day 4 of illumination): U
Appearance ([5]; day 6 of illumination): U
Appearance [5, 17]: U
SMILES: COc1cc(NCc2ccc3nc(N)nc(N)c3c2C)cc(OC)c1OC.O=C(O)[C@H]1O[C@H](O)[C@H](O)[C@@H](O)[C@@H]1O [Trimetrexate Glucuronate]

SMILES: COc1cc(NCc2ccc3nc(N)nc(N)c3c2C)cc(OC)c1OC [trimetrexate free base, 2,4-diamino-5-methyl-6-[(3,4,5-trimethoxyanilino)methyl]quinazoline]
pKa [6]: 8.0
in vitro antitumor activity [7]: in vitro antitumor activity
in vivo utility against murine tumors [8]: in vivo utility
in vitro activity against human tumor cell lines [9]: in vitro activity
metabolism (P450 enzyme system): metabolized by a P450 enzyme system
decomposition [10]: decomposes over time
water solubility [11]: < 100 µg/mL
